How the values were obtained:
[1] = tested on: human oral keratinocytes (HOK); test: CCK-8 cell viability: alleviation of proliferative toxicity of anti-tumor agents on HOK (Table 8-2); format: cell-based; conditions: NO-NSAID 100 μM
Method: (§1) Experiments were conducted using various epithelial cells: Examples 47-51 used human immortalized keratinocytes (HaCaT) with corresponding results in Table 8-1; Examples 52-56 used human oral keratinocytes (HOK) with results in Table 8-2; Examples 57-61 used gastric epithelial cells (GES-1) with results in Table 8-3; Examples 62-66 used human intestinal epithelial cells (FHs 74 Int) with results in Table 8-4.
(§2) The cultured cells were digested the suspended, counted, and seed into a 96-well plate with 5,000-10,000 cells per well. The wells are divided into the following groups: blank control group, anti-tumor agent group, anti-tumor agent+NO-NSAID group, anti-tumor agent solvent group, NO-NSAID solvent control group. Wherein each well of each group contained a basic medium, and the final liquid volume contained in each well was about 100 μL. The grouping situation was as follows: • 1) Blank control group: no solution was added except normally replacing the medium; • 2) Anti-tumor agent group: added the anti-tumor agent solution (the final concentration was shown in Table 8-1 to Table 8-4, the solvent of the anti-tumor agent solution was DMSO); • 3) Anti-tumor agent+NO-NSAID group: added the anti-tumor agent solution and the NO-NSAID solution (the final concentrations of anti-tumor agent and NO-NSAID were shown in Table 8-1 to Table 8-4, and according to the solubility of NO-NSAID, the solvent of NO-NSAID solution was selected as ethanol or sterile water, and minor volume differences in each group were adjusted by added the corresponding solvent); • 4) Anti-tumor agent solvent group: an equal volume of DMSO as contained in the corresponding anti-tumor agent solution in Group 2) was added; • 5) NO-NSAID control group: the same volume and type of solvent (for example, ethanol or sterile water) corresponding to the NO-NSAID contained in group 3) was added.
(§3) The anti-tumor agent solvent group was not involved in data processing and was only used as a reference for evaluating experimental system error. The NO-NSAID solvent control group was used for data correction to eliminate the influence of the solvent on the results.
(§4) After culturing for 24-48 hours, the Cell Counting Kit-8 (CCK-8) detection kit (C0037, Shanghai Beyotime Biotechnology Co., Ltd., Beyotime Biotechnology) was used to determine the cell viability. This allows for the calculation of the proliferative toxicity of anti-tumor agent on cell and the mitigating effect of NO-NSAID on proliferative toxicity. The results were statistically analyzed and plotted using GraphPad Prism 6.0 software and t test.

[2] = tested on: chemotherapy-induced hand-foot syndrome; test: Prevention of chemotherapy-induced hand-foot syndrome in rat models (Table 5); format: in vivo, SD rats; conditions: Capecitabine 4000 mg/kg once a day, Days 40
Method: Rat animal model was constructed. After several days, the rats develop hand-foot syndrome in their paws. After one week of acclimatization (about 200 g), the SD rats are divided into groups of 10 rats each, followed by gavage administration experiment. The chemotherapy drugs were dissolved, and each rat was given a gavage dose of 1 mL/100 g. After gavage, the rats were fixed with a fixed cylinder. NO-NSAID ointment was applied to the paws of the rats in the medication group, and blank ointment was applied to the paws of the rats in the blank group (as blank control). […] Table 5 lists the animal experimental combinations of chemotherapy drugs and NO-NSAID ointment, as well as the corresponding experimental results (where the value in the control rate column=the incidence rate of hand-foot syndrome in the blank group−the incidence rate of hand-foot syndrome in the treatment group).

[3] = tested on: hand-foot syndrome caused by anti-tumor agents; test: Treatment of established hand-foot syndrome caused by anti-tumor agents in rats (Table 4); format: in vivo; conditions: Days 7
Method: After the rats (about 200 g) were fed and adapted for one week, the rats were divided into groups of 10 rats for gavage administration experiment. The anti-tumor agent was dissolved in a mixed solution of Cremophor EL:ethanol=1:1, and diluted with PBS to the required concentration (diluted about 3 times with PBS solution) before gavage. […] Specific experimental procedures followed those outlined in the prevention experiment. […] Table 4 lists the animal experiments using various anti-tumor agents and NO-NSAID ointment, as well as the corresponding experimental results (where the value in the control rate column=the incidence rate of hand-foot syndrome in the blank group−the incidence rate of hand-foot syndrome in the treatment group).

[4] = tested on: gastric epithelial cells (GES-1); test: CCK-8 cell viability: alleviation of proliferative toxicity of anti-tumor agents on GES-1 (Table 8-3); format: cell-based, human; conditions: NO-NSAID 100 μM
Method: as §1, §2, §3, §4

[5] = tested on: human intestinal epithelial cells (FHs 74 Int); test: CCK-8 cell viability: alleviation of proliferative toxicity of anti-tumor agents on FHs 74 Int (Table 8-4); format: cell-based; conditions: NO-NSAID 100 μM
Method: as §1, §2, §3, §4

[6] = tested on: human immortalized keratinocytes (HaCaT); test: CCK-8 cell viability: alleviation of proliferative toxicity of anti-tumor agents on HaCaT (Table 8-1); format: cell-based; conditions: NO-NSAID 100 μM, percentage increase in viable cells vs anti-tumor agent alone
Method: as §1, §2, §3, §4

SMILES: CC(=O)Oc1ccccc1C(=O)OCOC(=O)CCCCCO[N+](=O)[O-] [Compound A3]
- Response rate % (average) ([1]; Afatinib (10 μM)): 27%
- Response rate % (average) ([1]; Cabozantinib (5 μM)): 8%
- Response rate % (average) ([1]; Dabrafenib (10 μM)): 4%
- Response rate % (average) ([1]; Everolimus (5 μM)): −8%
- Response rate % (average) ([1]; Infigratinib (15 μM)): 7%
- Response rate % (average) ([1]; Lapatinib (5 μM)): −4%
- Response rate % (average) ([1]; Lenvatinib (10 μM)): 18%
- Response rate % (average) ([1]; Olmutinib (10 μM)): 35%
- Response rate % (average) ([1]; Regorafenib (5 μM)): 12%
- Response rate % (average) ([1]; Selumetinib (5 μM)): 16%
- Response rate % (average) ([1]; Sorafenib (5 μM)): 30%
- Response rate % (average) ([1]; Sunitinib (5 μM)): 14%
- Control rate ([2]; ointment 1% wt): 28.57%
- Control rate ([2]; ointment 3% wt): 37.50%
- Response rate ([3]; Regorafenib 90 mg/kg once every two days, ointment 1% wt): 33.33%
- Response rate ([3]; Sorafenib 80 mg/kg once every two days, ointment 3% wt): 42.86%
- Response rate % (average) ([4]; Afatinib (10 μM)): 7%
- Response rate % (average) ([4]; Cabozantinib (5 μM)): 14%
- Response rate % (average) ([4]; Dabrafenib (10 μM)): 7%
- Response rate % (average) ([4]; Everolimus (5 μM)): 19%
- Response rate % (average) ([4]; Infigratinib (15 μM)): 28%
- Response rate % (average) ([4]; Lapatinib (5 μM)): 20%
- Response rate % (average) ([4]; Lenvatinib (10 μM)): 22%
- Response rate % (average) ([4]; Olmutinib (10 μM)): 33%
- Response rate % (average) ([4]; Regorafenib (5 μM)): 26%
- Response rate % (average) ([4]; Selumetinib (5 μM)): 19%
- Response rate % (average) ([4]; Sorafenib (5 μM)): 24%
- Response rate % (average) ([4]; Sunitinib (5 μM)): 4%
- Response rate % (average) ([5]; Afatinib (10 μM)): 26%
- Response rate % (average) ([5]; Cabozantinib (5 μM)): 13%
- Response rate % (average) ([5]; Dabrafenib (10 μM)): −8%
- Response rate % (average) ([5]; Everolimus (5 μM)): 14%
- Response rate % (average) ([5]; Infigratinib (15 μM)): 6%
- Response rate % (average) ([5]; Lapatinib (5 μM)): 23%
- Response rate % (average) ([5]; Lenvatinib (10 μM)): 25%
- Response rate % (average) ([5]; Olmutinib (10 μM)): 29%
- Response rate % (average) ([5]; Regorafenib (5 μM)): 29%
- Response rate % (average) ([5]; Selumetinib (5 μM)): 29%
- Response rate % (average) ([5]; Sorafenib (5 μM)): 26%
- Response rate % (average) ([5]; Sunitinib (5 μM)): 25%
- Response rate % (average) ([6]; Afatinib (10 μM)): 24%
- Response rate % (average) ([6]; Cabozantinib (5 μM)): 24%
- Response rate % (average) ([6]; Dabrafenib (10 μM)): 3%
- Response rate % (average) ([6]; Everolimus (5 μM)): −10%
- Response rate % (average) ([6]; Infigratinib (15 μM)): 1%
- Response rate % (average) ([6]; Lapatinib (5 μM)): 22%
- Response rate % (average) ([6]; Lenvatinib (10 μM)): 0%
- Response rate % (average) ([6]; Olmutinib (10 μM)): 37%
- Response rate % (average) ([6]; Regorafenib (5 μM)): 33%
- Response rate % (average) ([6]; Selumetinib (5 μM)): 20%
- Response rate % (average) ([6]; Sorafenib (5 μM)): 33%
- Response rate % (average) ([6]; Sunitinib (5 μM)): 19%

Source: patent US20250170090A1, “METHOD FOR PREVENTING OR TREATING DISEASE OR DISORDER ASSOCIATED WITH ANTINEOPLASTIC AGENT” (ONQUALITY PHARMACEUTICALS CHINA LTD., priority 2022, published 2025)
